Among the data in ChEMBL document CHEMBL2040735, “Synthesis, benzodiazepine receptor binding and molecular modelling of isochromeno[4,3-c]pyrazol-5(1H)-one derivatives” (Eur J Med Chem, 2012) are inhibition values, retold here.

The first assay is filed under the species Bos taurus. Nature of the assay: Displacement of [3H]flunitrazepam from benzodiazepine receptor in bovine brain membrane at 10 uM by liquid scintillation counting. The format is cell membranes.
Conditions: not given
The compound `Cc1cccc(-n2nc(C)c3c(=O)oc4ccccc4c32)c1` returned an inhibition of 78%. In turn, `Cc1nn(-c2cccc(Cl)c2)c2c1oc(=O)c1ccccc12` had an inhibition of 28%. `Cc1cccc(-n2nc(C)c3oc(=O)c4ccccc4c32)c1` came in with an inhibition of 40%.

With `Cc1ccc2c(c1)c(=O)oc1c(C)nn(-c3ccccc3)c12`, the inhibition came to 6%. With `Cc1nn(-c2ccccc2)c2c1oc(=O)c1ccc(Cl)cc12`, the inhibition is 35%.

`Cc1ccc(-n2nc(C)c3c(=O)oc4ccccc4c32)cc1` gave an inhibition of 66%. For `O=c1oc2ccccc2c2c1c(-c1ccccc1)nn2-c1ccccc1`, the inhibition was 10%. For `Cc1nn(-c2ccccc2)c2c1oc(=O)c1ccccc12`, the inhibition stood at 20%.

`Cc1nn(-c2ccccc2)c2c1oc(=O)c1cc(Cl)ccc12`: the inhibition turned out to be 0%. Consider `Cc1nn(-c2cccc(Cl)c2)c2c1c(=O)oc1ccccc12`, for which the inhibition came to 86%. In turn, `Cc1ccc(-n2nc(C)c3oc(=O)c4ccccc4c32)cc1` had an inhibition of 13%.

`Cc1nn(-c2ccccc2)c2c1c(=O)oc1ccccc12`: the inhibition is 76%.

Consider `O=c1oc2cnn(-c3ccccc3)c2c2ccccc12`, for which the inhibition was 54%. The same measure, in the same setting: the value for `O=c1oc2c(-c3ccccc3)nn(-c3ccccc3)c2c2ccccc12` was 5%.

The species entered for another assay is Bos taurus. As to conditions: Brain, Membrane, 1 uM.
Description: Displacement of [3H]flunitrazepam from benzodiazepine receptor in bovine brain membrane at 1 uM by liquid scintillation counting
The compound `CN1C(=O)CN=C(c2ccccc2)c2cc(Cl)ccc21` yielded an inhibition of 98%.
